Source: ChEMBL document CHEMBL1156548, “Determination and characterization of new benzimidazoles with activity against Trypanosoma cruzi by UV spectroscopy and HPLC” (Bioorg Med Chem, 2008)

Legend:
[1] = tested on: Trypanosoma cruzi; test: Inhibition of oxygen uptake in Trypanosoma cruzi MF epimastigotes at 300 uM by polarography; type: functional
[2] = Ionisation constant, pKa of the compound; type: physicochemical
[3] = Partition coefficient, log P of the compound; type: physicochemical; settings: octanol/water
[4] = tested on: Trypanosoma cruzi; test: Antiparasitic activity against Trypanosoma cruzi MF epimastigotes after 7 days by nephelometry; type: functional, organism-based; settings: 168 h
[5] = Effective permeability by HPLC-based PAMPA; type: ADME; settings: read-out: permeability
[6] = Ionisation constant, pKa corresponding to acid proton of […] benzimidazole ring; type: physicochemical
[7] = Effective permeability by UV-based PAMPA; type: ADME; settings: read-out: permeability
[8] = Ionisation constant, pKa corresponding to weak base of […] benzimidazole ring; type: physicochemical

SMILES	pKa [2]	logP [3]	IC50 [4]	Papp [5]	pKa [6]	Papp [7]	pKa [8]	inhibition at 300 µM [1]
O=C(c1ccccc1)n1c(-c2ccccc2[N+](=O)[O-])nc2ccccc21	4.9	3.1	94 µM					20%
O=[N+]([O-])c1ccccc1-c1nc2ccccc2[nH]1		2.2	117 µM	8 ×10⁻⁶ cm/s	11.4	12 ×10⁻⁶ cm/s	5.69	40%
O=C(c1ccc([N+](=O)[O-])cc1)n1c(-c2ccccc2[N+](=O)[O-])nc2ccccc21	4.79	2.8	80 µM					

The next lines start with results.

pKa [2]	logP [3]	IC50 [4]	Papp [5]	pKa [6]	Papp [7]	pKa [8]	SMILES	inhibition at 300 µM [1]
4.71	3.2	64 µM					COc1ccc(C(=O)n2c(-c3ccccc3[N+](=O)[O-])nc3ccccc32)cc1	
4.69	3.6	78 µM					O=C(c1ccc(Cl)cc1)n1c(-c2ccccc2[N+](=O)[O-])nc2ccccc21	
